± gives the expanded uncertainty stated by the source.
Conditions: Crystal; visual observation

- Normal melting temperature: 71.7 ± 1.1 °C
SMILES: CC=CC(=O)O [2-butenoic acid]
